Two compounds from patent US6403594B1, “Benzopyran derivatives” (Recordati, S.A. Chemical and Pharmaceutical Company, priority 1999, dated 2002) can be followed below.

Test [1] deals with T1, α1a-adrenoceptor (recombinant) (Homo sapiens, UniProt P35348).
T1 construct: expressed in transfected cells
T1 sequence (P35348 1-466): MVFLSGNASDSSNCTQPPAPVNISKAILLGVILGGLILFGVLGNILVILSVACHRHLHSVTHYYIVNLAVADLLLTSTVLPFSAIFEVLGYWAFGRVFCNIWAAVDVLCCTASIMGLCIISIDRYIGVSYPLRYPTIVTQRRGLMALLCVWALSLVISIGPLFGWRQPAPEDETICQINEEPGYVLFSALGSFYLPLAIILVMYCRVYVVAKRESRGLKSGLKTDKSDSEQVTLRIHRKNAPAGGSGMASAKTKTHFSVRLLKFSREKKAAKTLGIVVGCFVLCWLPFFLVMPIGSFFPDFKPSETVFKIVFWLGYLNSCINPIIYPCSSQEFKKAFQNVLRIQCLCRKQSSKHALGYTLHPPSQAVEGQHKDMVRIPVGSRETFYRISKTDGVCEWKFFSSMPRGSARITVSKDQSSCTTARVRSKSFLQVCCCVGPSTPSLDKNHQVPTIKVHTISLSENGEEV
As to the kind of experiment: Radioligand binding, cloned α1a-adrenoceptor ([3H]prazosin). Particulars: read-out: Affinity for recombinant α1a-adrenoceptor, cloned receptors (Ki).

Test [2] concerns the target T2, 5HT1A-serotoninergic receptor (Homo sapiens, UniProt P08908).
T2 sequence (P08908 1-422): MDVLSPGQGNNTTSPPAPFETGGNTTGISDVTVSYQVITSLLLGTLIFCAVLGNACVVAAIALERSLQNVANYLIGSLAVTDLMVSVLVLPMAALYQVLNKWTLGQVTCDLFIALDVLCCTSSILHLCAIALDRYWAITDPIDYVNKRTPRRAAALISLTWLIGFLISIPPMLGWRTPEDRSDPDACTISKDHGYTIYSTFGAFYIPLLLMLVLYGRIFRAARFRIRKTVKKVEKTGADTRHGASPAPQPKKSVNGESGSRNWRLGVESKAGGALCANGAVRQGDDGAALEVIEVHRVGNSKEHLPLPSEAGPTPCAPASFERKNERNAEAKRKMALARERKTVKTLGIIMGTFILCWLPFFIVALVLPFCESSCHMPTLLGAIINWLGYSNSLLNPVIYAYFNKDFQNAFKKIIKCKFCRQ
As to the kind of experiment: Radioligand binding, cloned 5-HT1A-serotoninergic receptor in HeLa membranes ([3H]8-OH-DPAT). Details: expressed in transfected cells; host or cells: HeLa. The following applies: cloned human 5-HT1A receptor in HeLa membranes, mean Ki, read-out: Affinity for 5-HT1A receptor, cloned receptors (Ki).

Test [3] addresses T3, α1b-adrenoceptor (recombinant) (Homo sapiens, UniProt P35368).
T3 construct: expressed in transfected cells
T3 sequence (P35368 1-520): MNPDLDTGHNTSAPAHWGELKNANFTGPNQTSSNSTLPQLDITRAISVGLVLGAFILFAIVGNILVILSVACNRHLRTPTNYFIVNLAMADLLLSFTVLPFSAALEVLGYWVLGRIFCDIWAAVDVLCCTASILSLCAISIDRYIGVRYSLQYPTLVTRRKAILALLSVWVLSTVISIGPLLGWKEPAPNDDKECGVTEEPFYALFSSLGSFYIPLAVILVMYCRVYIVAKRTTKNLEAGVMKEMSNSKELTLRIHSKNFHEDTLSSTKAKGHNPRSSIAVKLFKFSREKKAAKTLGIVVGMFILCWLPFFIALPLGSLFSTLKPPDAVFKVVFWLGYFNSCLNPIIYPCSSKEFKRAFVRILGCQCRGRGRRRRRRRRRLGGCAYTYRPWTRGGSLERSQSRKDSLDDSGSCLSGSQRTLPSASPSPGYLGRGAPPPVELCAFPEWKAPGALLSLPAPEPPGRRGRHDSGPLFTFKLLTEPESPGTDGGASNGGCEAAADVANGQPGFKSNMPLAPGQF
Description: Radioligand binding, cloned α1b-adrenoceptor ([3H]prazosin). Particulars: read-out: Affinity for recombinant α1b-adrenoceptor, cloned receptors (Ki).

As a reminder, the Ki is a dissociation constant, usually derived from enzyme kinetics or from competition with a known ligand. On to `COc1ccc(Cl)cc1N1CCN(CCCNC(=O)c2cccc3c(=O)c(C)c(C(N)=O)oc23)CC1` [Example 1, 2-Carbamoyl-8-{3-[4-(5-chloro-2-methoxyphenyl)-1-piperazinyl]-propylcarbamoyl}-3-methyl-4-oxo-4H-1-benzopyran], for which the Ki was determined as 2.4 nM in test [1], 17.2 nM in test [2] and 2.62 nM in test [3].

As for `CCOC(=O)c1oc2c(C(=O)NCCCN3CCN(c4cc(Cl)ccc4OC)CC3)cccc2c(=O)c1C` [Example 4, 2-Ethoxycarbonyl-8-{3-[4-(5-chloro-2-methoxyphenyl)-1-piperazinyl]-propylcarbamoyl}-3-methyl-4-oxo-4H-1-benzopyran], the values for the Ki in test [1], in test [2] and in test [3] were 0.21 nM, 15.2 nM and 0.08 nM, respectively.
